The CheMixHub viscosity set

Experiment: xn = mol fraction of the nth substance listed

CCCCCCCC + CCCCCCC
Conditions	viscosity [mPa·s]
293.15 K, 101 kPa, x2 = 0.2	0.511
293.15 K, 101 kPa, x2 = 0.4	0.484
293.15 K, 101 kPa, x2 = 0.6	0.458
293.15 K, 101 kPa, x2 = 0.8	0.433
293.15 K, 101.33 kPa, x2 = 0.07168	0.531
293.15 K, 101.33 kPa, x2 = 0.1121	0.525
293.15 K, 101.33 kPa, x2 = 0.1909	0.514
293.15 K, 101.33 kPa, x2 = 0.2852	0.501
293.15 K, 101.33 kPa, x2 = 0.3891	0.487
293.15 K, 101.33 kPa, x2 = 0.4993	0.473
293.15 K, 101.33 kPa, x2 = 0.5985	0.46
293.15 K, 101.33 kPa, x2 = 0.6936	0.448
293.15 K, 101.33 kPa, x2 = 0.7797	0.437
293.15 K, 101.33 kPa, x2 = 0.8967	0.422
293.15 K, 101.33 kPa, x2 = 0.9584	0.414
298.15 K, 101.33 kPa, x2 = 0.1073	0.4942
298.15 K, 101.33 kPa, x2 = 0.2098	0.4774
298.15 K, 101.33 kPa, x2 = 0.406	0.4539
298.15 K, 101.33 kPa, x2 = 0.5089	0.4431
298.15 K, 101.33 kPa, x2 = 0.6081	0.4285
298.15 K, 101.33 kPa, x2 = 0.7052	0.4201
298.15 K, 101.33 kPa, x2 = 0.807	0.4103
298.15 K, 101.33 kPa, x2 = 0.9012	0.3958
303.15 K, 101.33 kPa, x2 = 0.1022	0.469
303.15 K, 101.33 kPa, x2 = 0.199	0.458
303.15 K, 101.33 kPa, x2 = 0.2324	0.454
303.15 K, 101.33 kPa, x2 = 0.3088	0.445
303.15 K, 101.33 kPa, x2 = 0.369	0.438
303.15 K, 101.33 kPa, x2 = 0.5069	0.423
303.15 K, 101.33 kPa, x2 = 0.5644	0.416
303.15 K, 101.33 kPa, x2 = 0.6459	0.407
303.15 K, 101.33 kPa, x2 = 0.7393	0.397
303.15 K, 101.33 kPa, x2 = 0.799	0.391
303.15 K, 101.33 kPa, x2 = 0.9128	0.379
312.75 K, 100 kPa, x1 = 0.2	0.3426
313.15 K, 101 kPa, x2 = 0.2	0.407
313.15 K, 101 kPa, x2 = 0.4	0.387
313.15 K, 101 kPa, x2 = 0.6	0.368
313.15 K, 101 kPa, x2 = 0.8	0.35
313.15 K, 101.33 kPa, x2 = 0.05003	0.426
313.15 K, 101.33 kPa, x2 = 0.09664	0.421
313.15 K, 101.33 kPa, x2 = 0.1716	0.413
313.15 K, 101.33 kPa, x2 = 0.212	0.409
313.15 K, 101.33 kPa, x2 = 0.2687	0.404
313.15 K, 101.33 kPa, x2 = 0.3937	0.392
313.15 K, 101.33 kPa, x2 = 0.4963	0.382
313.15 K, 101.33 kPa, x2 = 0.596	0.372
313.15 K, 101.33 kPa, x2 = 0.6942	0.363
313.15 K, 101.33 kPa, x2 = 0.7937	0.354
313.15 K, 101.33 kPa, x2 = 0.9085	0.343
313.15 K, 101.33 kPa, x2 = 0.9589	0.339

CCCCCCCCCCCCCC + CCCCCCC
101 kPa, x2 = 0.5
Conditions	viscosity [mPa·s]
298 K	1.031
318 K	0.7754

ClC(Cl)=C(Cl)Cl + CCCCCCC
303.15 K, 101 kPa
Conditions	viscosity [mPa·s]
x1 = 0.196	0.442
x1 = 0.3642	0.497
x1 = 0.4421	0.529
x1 = 0.4713	0.543
x1 = 0.5272	0.568
x1 = 0.6106	0.61
x1 = 0.6939	0.653
x1 = 0.7237	0.668
x1 = 0.8091	0.714
x1 = 0.9254	0.775

O=[N+]([O-])c1ccccc1 + CCCCCCC
101.3 kPa
Conditions	viscosity [mPa·s]
293.15 K, x1 = 0.149	0.482
293.15 K, x1 = 0.2214	0.532
293.15 K, x1 = 0.2746	0.58
293.15 K, x1 = 0.3291	0.631
293.15 K, x1 = 0.4214	0.759
293.15 K, x1 = 0.4477	0.805
293.15 K, x1 = 0.4729	0.845
293.15 K, x1 = 0.4886	0.862
293.15 K, x1 = 0.5628	0.937
293.15 K, x1 = 0.6392	1.016
293.15 K, x1 = 0.7954	1.313
293.15 K, x1 = 0.8751	1.517
293.16 K, x1 = 0.383	0.845
293.57 K, x1 = 0.383	0.831
294.17 K, x1 = 0.383	0.812
295.09 K, x1 = 0.383	0.794
295.15 K, x1 = 0.149	0.471
295.15 K, x1 = 0.2214	0.517
295.15 K, x1 = 0.2746	0.562
295.15 K, x1 = 0.3291	0.611
295.15 K, x1 = 0.4214	0.72
295.15 K, x1 = 0.4477	0.759
295.15 K, x1 = 0.4729	0.79
295.15 K, x1 = 0.4886	0.808
295.15 K, x1 = 0.5628	0.896
295.15 K, x1 = 0.6392	0.984
295.15 K, x1 = 0.7954	1.274
295.15 K, x1 = 0.8751	1.475
296.42 K, x1 = 0.383	0.768
298.66 K, x1 = 0.383	0.736
299.15 K, x1 = 0.149	0.451
299.15 K, x1 = 0.2214	0.498
299.15 K, x1 = 0.2746	0.539
299.15 K, x1 = 0.3291	0.579
299.15 K, x1 = 0.4214	0.67
299.15 K, x1 = 0.4477	0.702
299.15 K, x1 = 0.4729	0.73
299.15 K, x1 = 0.4886	0.746
299.15 K, x1 = 0.5628	0.836
299.15 K, x1 = 0.6392	0.926
299.15 K, x1 = 0.7954	1.201
299.15 K, x1 = 0.8751	1.385
305.15 K, x1 = 0.149	0.423
305.15 K, x1 = 0.2214	0.463
305.15 K, x1 = 0.2746	0.503
305.15 K, x1 = 0.3291	0.536
305.15 K, x1 = 0.4214	0.615
305.15 K, x1 = 0.4477	0.643
305.15 K, x1 = 0.4729	0.678
305.15 K, x1 = 0.4886	0.681
305.15 K, x1 = 0.5628	0.764
305.15 K, x1 = 0.6392	0.85
305.15 K, x1 = 0.7954	1.104
305.15 K, x1 = 0.8751	1.26
313.15 K, x1 = 0.149	0.391
313.15 K, x1 = 0.2214	0.425
313.15 K, x1 = 0.2746	0.459
313.15 K, x1 = 0.3291	0.491
313.15 K, x1 = 0.4214	0.558
313.15 K, x1 = 0.4477	0.58
313.15 K, x1 = 0.4729	0.602
313.15 K, x1 = 0.4886	0.613
313.15 K, x1 = 0.5628	0.689
313.15 K, x1 = 0.6392	0.77
313.15 K, x1 = 0.7954	0.984
313.15 K, x1 = 0.8751	1.124

c1ccccc1 + CCCCCCC
Conditions	viscosity [mPa·s]
294.15 K, 101 kPa, x1 = 0.6	0.4728
295.15 K, 101 kPa, x1 = 0.3	0.427
298 K, 101 kPa, x1 = 0.5	0.4167
298 K, 101.33 kPa, x1 = 0.1007	0.3923
298 K, 101.33 kPa, x1 = 0.1109	0.3913
298 K, 101.33 kPa, x1 = 0.1922	0.4003
298 K, 101.33 kPa, x1 = 0.276	0.4019
298 K, 101.33 kPa, x1 = 0.2915	0.4023
298 K, 101.33 kPa, x1 = 0.3953	0.4142
298 K, 101.33 kPa, x1 = 0.4839	0.4157
298 K, 101.33 kPa, x1 = 0.5204	0.4382
298 K, 101.33 kPa, x1 = 0.6729	0.4487
298 K, 101.33 kPa, x1 = 0.6893	0.5006
298 K, 101.33 kPa, x1 = 0.6967	0.4544
298 K, 101.33 kPa, x1 = 0.8532	0.5208
298 K, 101.33 kPa, x1 = 0.9152	0.5442
298.15 K, 101 kPa, x2 = 0.1025	0.53
298.15 K, 101 kPa, x2 = 0.2002	0.491
298.15 K, 101 kPa, x2 = 0.2919	0.46
298.15 K, 101 kPa, x2 = 0.4003	0.429
298.15 K, 101 kPa, x2 = 0.5192	0.41
298.15 K, 101 kPa, x2 = 0.6209	0.401
298.15 K, 101 kPa, x2 = 0.7084	0.392
298.15 K, 101 kPa, x2 = 0.7893	0.388
298.15 K, 101 kPa, x2 = 0.9165	0.386
298.15 K, 101.33 kPa, x2 = 0.095	0.532
298.15 K, 101.33 kPa, x2 = 0.1973	0.485
298.15 K, 101.33 kPa, x2 = 0.2999	0.455
298.15 K, 101.33 kPa, x2 = 0.3741	0.439
298.15 K, 101.33 kPa, x2 = 0.3984	0.431
298.15 K, 101.33 kPa, x2 = 0.4961	0.414
298.15 K, 101.33 kPa, x2 = 0.5995	0.403
298.15 K, 101.33 kPa, x2 = 0.6762	0.397
298.15 K, 101.33 kPa, x2 = 0.7309	0.395
298.15 K, 101.33 kPa, x2 = 0.7987	0.391
298.15 K, 101.33 kPa, x2 = 0.8933	0.389
308.15 K, 101 kPa, x2 = 0.1025	0.47
308.15 K, 101 kPa, x2 = 0.2002	0.44
308.15 K, 101 kPa, x2 = 0.2919	0.412
308.15 K, 101 kPa, x2 = 0.4003	0.388
308.15 K, 101 kPa, x2 = 0.5192	0.37
308.15 K, 101 kPa, x2 = 0.6209	0.36
308.15 K, 101 kPa, x2 = 0.7084	0.355
308.15 K, 101 kPa, x2 = 0.7893	0.351
308.15 K, 101 kPa, x2 = 0.9165	0.349
318 K, 101 kPa, x1 = 0.5	0.3407
318.15 K, 101 kPa, x2 = 0.1025	0.42
318.15 K, 101 kPa, x2 = 0.2002	0.396
318.15 K, 101 kPa, x2 = 0.2919	0.371
318.15 K, 101 kPa, x2 = 0.4003	0.352
318.15 K, 101 kPa, x2 = 0.5192	0.338
318.15 K, 101 kPa, x2 = 0.6209	0.33
318.15 K, 101 kPa, x2 = 0.7084	0.325
318.15 K, 101 kPa, x2 = 0.7893	0.319
318.15 K, 101 kPa, x2 = 0.9165	0.318
323.15 K, 101 kPa, x1 = 0.6	0.342
